# ChEMBL document CHEMBL5584232, “Hijacking monopolar spindle 1 (MPS1) for various cancer types by small molecular inhibitors: Deep insights from a decade of research and patents” (Eur J Med Chem, 2024)
# How the values were obtained:
# COLO 205 = experiment: Antiproliferative activity against human COLO 205 cells assessed as reduction in cell viability incubated for 48 hrs by MTT assay; assay type: functional, cell-based; details: COLO 205, 48 h
# [1] = AUC in mouse; assay type: ADME, organism-based; details: in vivo
# [2] = Half life in mouse; assay type: ADME, organism-based; details: in vivo
# Aurora kinase A = target: T1, Aurora kinase A (Homo sapiens, UniProt O14965); experiment: Inhibition of AURORA-A (unknown origin)
# T1 sequence (O14965 whole entry): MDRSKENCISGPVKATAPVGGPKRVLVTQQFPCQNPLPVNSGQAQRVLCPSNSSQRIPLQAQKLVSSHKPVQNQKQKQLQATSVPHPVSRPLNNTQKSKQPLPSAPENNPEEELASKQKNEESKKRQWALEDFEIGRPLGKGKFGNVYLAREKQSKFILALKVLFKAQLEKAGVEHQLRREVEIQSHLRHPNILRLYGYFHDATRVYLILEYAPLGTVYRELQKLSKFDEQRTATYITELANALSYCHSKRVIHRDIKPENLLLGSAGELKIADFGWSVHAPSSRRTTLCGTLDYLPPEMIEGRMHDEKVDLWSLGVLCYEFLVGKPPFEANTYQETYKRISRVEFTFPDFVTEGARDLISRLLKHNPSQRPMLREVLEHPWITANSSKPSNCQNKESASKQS
# [3] = Metabolic stability in mouse liver microsomes assessed as drug metabolism measured after 30 mins; assay type: ADME, Microsome; details: read-out: Drug metabolism
# [4] = Clearance in Sprague-Dawley rat at 1 mg/kg, iv measured after 24 hrs by LC-MS/MS analysis; assay type: ADME, organism-based; details: in vivo
# [5] = Clearance in rat at 1 mg/kg, po; assay type: ADME, organism-based; details: in vivo
# [6] = target: T2, Dual specificity protein kinase TTK (Homo sapiens, UniProt P33981); experiment: Inhibition of MPS1 (unknown origin)
# T2 sequence (P33981 whole entry): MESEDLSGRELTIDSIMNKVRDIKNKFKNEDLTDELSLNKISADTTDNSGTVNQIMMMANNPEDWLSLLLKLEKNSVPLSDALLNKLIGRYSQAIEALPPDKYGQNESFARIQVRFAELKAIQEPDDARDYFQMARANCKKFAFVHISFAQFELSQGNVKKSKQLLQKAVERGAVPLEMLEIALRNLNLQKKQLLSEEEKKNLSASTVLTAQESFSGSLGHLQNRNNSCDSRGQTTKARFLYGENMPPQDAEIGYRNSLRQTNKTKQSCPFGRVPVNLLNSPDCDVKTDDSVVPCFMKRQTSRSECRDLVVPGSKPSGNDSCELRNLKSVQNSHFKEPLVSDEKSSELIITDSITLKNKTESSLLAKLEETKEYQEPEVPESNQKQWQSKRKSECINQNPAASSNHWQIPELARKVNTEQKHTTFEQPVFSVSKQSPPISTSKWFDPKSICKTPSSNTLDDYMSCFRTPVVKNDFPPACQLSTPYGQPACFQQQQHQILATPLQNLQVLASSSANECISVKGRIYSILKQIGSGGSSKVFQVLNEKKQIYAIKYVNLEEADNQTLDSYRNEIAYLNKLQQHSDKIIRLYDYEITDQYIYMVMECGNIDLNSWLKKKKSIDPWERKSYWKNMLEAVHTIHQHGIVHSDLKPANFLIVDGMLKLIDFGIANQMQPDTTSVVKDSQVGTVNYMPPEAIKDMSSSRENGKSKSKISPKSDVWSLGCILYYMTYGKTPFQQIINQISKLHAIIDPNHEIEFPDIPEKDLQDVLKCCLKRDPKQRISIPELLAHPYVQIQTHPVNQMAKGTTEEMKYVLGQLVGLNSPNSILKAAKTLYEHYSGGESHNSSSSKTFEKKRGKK
# CAL-51 [7] = experiment: Antiproliferative activity against human CAL-51 cells assessed as reduction in cell viability incubated for 72 hrs by MTT assay; assay type: functional, cell-based; details: CAL-51, 72 h
# [8] = Cmax in Sprague-Dawley rat at 3 mg/kg, po by LC-MS/MS analysis; assay type: ADME, organism-based; details: in vivo
# [9] = AUC in Sprague-Dawley rat at 3 mg/kg, po by LC-MS/MS analysis; assay type: ADME, organism-based; details: in vivo
# [10] = Cmax in ICR mouse at 3 mg/kg, po; assay type: ADME, organism-based; details: in vivo
# [11] = AUC in ICR mouse at 3 mg/kg, po and measured after 24 hrs by LC-MS/MS analysis; assay type: ADME, organism-based; details: in vivo
# [12] = Oral bioavailability in ICR mouse at 5 mg/kg by LC-MS/MS analysis; assay type: ADME, organism-based; details: in vivo
# CYP450 = CYP450 (Homo sapiens, UniProt P04798+P05177+P05181+P08684+P10632+P10635+P11509+P11712+P13584+P20813+P20815+P20853+P24462+P24903+P33260+P33261+P51589+P78329+P98187+Q02928+Q08477+Q16678+Q16696+Q5TCH4+Q6VVX0+Q7Z449+Q8TAV3+Q96SQ9+Q9HB55); experiment: Inhibition of CYP450 (unknown origin); assay type: ADME, protein assay
# HCT-116 = experiment: Antitumor activity against human HCT-116 cells xenografted in athymic nude BALB/c mouse assessed as reduction in tumor growth at 12.5 mg/kg, ip administered every other day and measured every other day for 16 days; assay type: functional; details: HCT-116, 384 h, time 16 day, read-out: TGI
# [13] = target: T2, Dual specificity protein kinase TTK; experiment: Inhibition of human recombinant TTK expressed in Escherichia coli Rossetta 2 (DE3) incubated for 1 hr by TR-FRET assay
# CAL-51 [14] = experiment: Antiproliferative activity against human CAL-51 cells assessed as inhibition of cell growth incubated for 72 hrs by MTT assay; assay type: functional, cell-based; details: CAL-51, 72 h
# [15] = target: Cyclin-dependent kinase 2 (Homo sapiens, UniProt P24941); experiment: Inhibition of CDK2 (unknown origin)
# A549 = experiment: Antiproliferative activity against human A549 cells assessed as reduction in cell growth incubated for 48 hrs by MTT assay; assay type: functional, cell-based; details: A549, 48 h
# MOLT-4 = experiment: Antiproliferative activity against human MOLT-4 cells assessed as reduction in cell growth incubated for 72 hrs by MTT assay; assay type: functional, cell-based; details: MOLT-4, 72 h
# IGROV-1 [16] = experiment: Growth inhibition of human IGROV-1 cells measured after 72 hrs by SRB method; assay type: functional
# OVCAR-4 [17] = experiment: Growth inhibition of human OVCAR-4 cells measured after 72 hrs by SRB method; assay type: functional
# IGROV-1 [18] = experiment: Anticancer activity against human IGROV-1 cells assessed as cell growth inhibition measured after 72 hrs by DAPI staining based analysis; assay type: functional
# OVCAR-3 = experiment: Anticancer activity against human OVCAR-3 cells assessed as cell growth inhibition measured after 72 hrs by DAPI staining based analysis; assay type: functional
# OVCAR-4 [19] = experiment: Anticancer activity against human OVCAR-4 cells assessed as cell growth inhibition measured after 72 hrs by DAPI staining based analysis; assay type: functional
# OVCAR-5 = experiment: Anticancer activity against human OVCAR-5 cells assessed as cell growth inhibition measured after 72 hrs by DAPI staining based analysis; assay type: functional
# OVCAR-8 = experiment: Anticancer activity against human OVCAR-8 cells assessed as cell growth inhibition measured after 72 hrs by DAPI staining based analysis; assay type: functional
# NCI/ADR-RES = experiment: Anticancer activity against human NCI-ADR-RES cells assessed as cell growth inhibition measured after 72 hrs by DAPI staining based analysis; assay type: functional
# SK-OV-3 = experiment: Anticancer activity against human SK-OV-3 cells assessed as cell growth inhibition measured after 72 hrs by DAPI staining based analysis; assay type: functional
structure (smiles),measurement,setting,value
CCC(=O)N[C@H]1CC[C@@H](n2c(=O)cc(C)c3cnc(Nc4ccc(N5CCN(C(=O)CCC#Cc6ccc7c(c6)CN(C6CCC(=O)NC6=O)C7=O)CC5)cc4OC)nc32)CC1 (stereo partly drawn),IC50,COLO 205,0.1 µM
same,AUC,[1],2.23 µM·h
same,half-life,[2],4.3 h
CN(C)C(=O)c1cc2cnc(Nc3ccc(S(=O)(=O)N(C)C)cc3Cl)cc2[nH]1,IC50,Aurora kinase A,> 40 µM
same,metabolised at 0.5 h,[3],25%
Cn1cc(-c2cc3[nH]nc(-c4cccc(S(N)(=O)=O)c4)c3cc2NC2CCCCC2)cn1,clearance,[4],33 mL/min/kg
CC(=O)Nc1cccc(-c2n[nH]c3cc(-c4cnn(C)c4)c(NC4CCCCC4)cc23)c1,CL/F,[5],33 mL/min/kg
C[C@H](Oc1cc(C(=O)N(C)C)ccc1Nc1nc(O[C@H]2CC[C@@](C)(O)CC2)c2c(Cl)c[nH]c2n1)C(F)(F)F,IC50,[6],0.0007 µM
same,IC50,CAL-51 [7],0.01 µM
same,Cmax,[8],4.35 µM
same,AUC,[9],26.3 µM·h
same,Cmax,[10],5.2 µM
same,AUC at 24 h,[11],22.5 µM·h
same,bioavailability,[12],60%
CN(C)C(=O)c1ccc(Nc2cc3c(cn2)cc(C(=O)N(C)C)n3C(=O)OC(C)(C)C)c(Cl)c1,IC50,Aurora kinase A,23 µM
same,metabolised at 0.5 h,[3],48%
CCc1ccccc1C(C(=O)Nc1ccc2[nH]nc(-c3cccc(S(N)(=O)=O)c3)c2c1)N(C)C (stereo not drawn),IC50,CYP450,0.7 µM
same,inhibition in vivo at 12.5 mg/kg,HCT-116,10%
COc1cc(N2CCC(O)CC2)ccc1Nc1nc(Nc2ccccc2S(=O)(=O)C(C)C)c2nc[nH]c2n1,IC50,[13],0.015 µM
CCC(=O)N[C@H]1CC[C@@H](n2c(=O)cc(C)c3cnc(Nc4ccc(N5CCN(C(=O)CCCCC#Cc6ccc7c(c6)CN(C6CCC(=O)NC6=O)C7=O)CC5)cc4OC)nc32)CC1 (stereo partly drawn),IC50,COLO 205,0.2 µM
same,AUC,[1],2.33 µM·h
same,half-life,[2],3.2 h
CNC(=O)c1ccc(Nc2nc(O[C@H]3CCOC3)c3c(-c4ccc5nc(C)oc5c4)c[nH]c3n2)c(OC)c1,IC50,CAL-51 [14],0.018 µM
CN(C)C(=O)c1cc2cnc(Nc3ccc(-c4cncn4C)cc3Cl)cc2n1C(=O)OC(C)(C)C,IC50,[15],> 100 µM
same,IC50,Aurora kinase A,> 40 µM
same,metabolised at 0.5 h,[3],28%
CCOc1cc2c(-c3ccc(C)c(S(N)(=O)=O)c3)n[nH]c2cc1-c1cnn(C)c1,IC50,A549,0.386 µM
COc1cc(N2CCN(C)CC2)ccc1Nc1ncc2c(n1)-n1ccc(C(=O)Nc3c(C)cccc3C)c1CC2,IC50,MOLT-4,0.011 µM
O=c1c2cc(Cl)ccc2sc2c(NCCCNCCO)nc3ccccc3c12,GI50,IGROV-1 [16],1.6 µM
same,GI50,OVCAR-4 [17],1.6 µM
same,TGI,IGROV-1 [18],3.6 µM
same,TGI,OVCAR-3,3.51 µM
same,TGI,OVCAR-4 [19],3.23 µM
same,TGI,OVCAR-5,3.5 µM
same,TGI,OVCAR-8,3.32 µM
same,TGI,NCI/ADR-RES,3.63 µM
same,TGI,SK-OV-3,3.38 µM
CCOc1cc2c(-c3cccc(S(N)(=O)=O)c3)n[nH]c2cc1-c1cn[nH]c1,IC50,A549,0.386 µM
